Measured values: ChEMBL document CHEMBL3414465, “Discovery of novel P1 groups for coagulation factor VIIa inhibition using fragment-based screening” (J Med Chem, 2015)

System: Plasma
Assay: Anticoagulant activity in factor VII-deficient human plasma assessed as concentration required to prolong clotting time by two-fold
Assay type: functional
Conditions: not given

Row | Structure (SMILES) | 2PT
1 | COC(=O)Nc1ccc(S(=O)(=O)C(C)C)c([C@H]2CCCN2C(=O)[C@H](Nc2ccc3c(c2)C(=O)NCC3)c2cc(OC)c(OC)cc2F)c1 | 160 µM

Molecular target: Coagulation factor VII/tissue factor (Homo sapiens, UniProt P08709)
Sequence (P08709 61-212 limits assumed): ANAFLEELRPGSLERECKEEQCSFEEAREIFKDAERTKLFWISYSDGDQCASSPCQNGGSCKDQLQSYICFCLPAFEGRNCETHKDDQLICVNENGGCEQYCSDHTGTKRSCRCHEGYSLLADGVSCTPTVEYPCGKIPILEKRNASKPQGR
Sequence (P08709 213-466 limits assumed): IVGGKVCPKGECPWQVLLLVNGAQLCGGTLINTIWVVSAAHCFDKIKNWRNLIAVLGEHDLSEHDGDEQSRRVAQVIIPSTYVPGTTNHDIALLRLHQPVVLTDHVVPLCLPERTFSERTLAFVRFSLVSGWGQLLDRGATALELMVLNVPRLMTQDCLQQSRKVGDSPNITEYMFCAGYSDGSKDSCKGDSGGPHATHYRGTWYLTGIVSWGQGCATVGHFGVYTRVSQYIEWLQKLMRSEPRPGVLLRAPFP
Sequence (P13726 33-295 partner limits assumed): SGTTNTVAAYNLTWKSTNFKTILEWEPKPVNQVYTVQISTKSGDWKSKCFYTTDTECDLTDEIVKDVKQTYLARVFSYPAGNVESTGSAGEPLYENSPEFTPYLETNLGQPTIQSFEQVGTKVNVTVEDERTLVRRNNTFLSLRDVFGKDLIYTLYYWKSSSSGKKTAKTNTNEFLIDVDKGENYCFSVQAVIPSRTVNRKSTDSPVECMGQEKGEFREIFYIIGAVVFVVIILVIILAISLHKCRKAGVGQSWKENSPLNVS
Assay: Inhibition of human soluble tissue factor/factor VIIa expressed in Origami B (DE3) using D-Ile-Pro-Arg-pNA as substrate after 30 mins by spectrophotometric analysis
Conditions: not given

Row | Structure (SMILES) | Ki
2 | Clc1ccc2[nH]nnc2c1 | 8.7 mM
3 | COC(=O)Nc1ccc(S(=O)(=O)C(C)C)c([C@H]2CCCN2C(=O)[C@H](Nc2ccc3c(c2)C(=O)NCC3)c2cc(OC)c(OC)cc2F)c1 | 0.00013 mM
4 | NC(=O)c1cccnc1 [NIACINAMIDE] | 8 mM
5 | OCc1ccc(Cl)cc1Cl [DICHLOROBENZYL ALCOHOL] | 13 mM
6 | Clc1ccc2[nH]ccc2c1 | 4.3 mM
7 | COC(=O)c1cccc2[nH]ccc12 | 13 mM
8 | O=C(O)c1cc2cc(Cl)ccc2[nH]1 [5-CHLOROINDOLE-2-CARBOXYLIC ACID] | 3.5 mM
9 | COc1cc(Cl)ccc1O | 16 mM
10 | O=C(O)c1c[nH]c2ccc(Cl)cc12 | 5.7 mM
11 | N=C(N)c1ccccc1 [BENZAMIDINE] | 0.24 mM
12 | CC(O)c1cccc2ccccc12 (centres undefined) | 16 mM
13 | COc1cc(Br)ccc1O | 13 mM

System: not listed separately
Assay: Permeability of the compound after 4 hrs by PAMPA
Assay type: ADME
Conditions: read-out: permeability

Row | Structure (SMILES) | Papp at 4 h
14 | COC(=O)Nc1ccc(S(=O)(=O)C(C)C)c([C@H]2CCCN2C(=O)[C@H](Nc2ccc3c(c2)C(=O)NCC3)c2cc(OC)c(OC)cc2F)c1 | 1.8 ×10⁻⁶ cm/s
